Experiment [1] concerns monocyte IL-6 production. The experiment is described as follows: NB-monocyte co-culture, IL-6 ELISA of supernatant. In kind it is cell-based, human. The note with it: 24 hours. The protocol: (§1) Monocytes were directly cultured with wild-type or TNF, TNFR1, TNFR2 KO NB cell lines in ULA plates for 24 hours. Activation of NF-kB in monocytes and NB was measured by flow cytometry and cytokine production measured by ELISA from co-culture supernatant. To evaluate the contact-dependence of monocyte activation by NB, monocytes were cultured in ULA plates with seven-day NB conditioned medium mixed 1:1 with complete monocyte medium for 24 hours and analyzed for IL-6 production. To assess the growth advantage of NB cultured with monocytes, NB-luc cell lines and monocytes were seeded in tissue culture-treated white 96-well plates (1:1 ratio) and cultured for four days. Luminescence was measured using a TECAN Spark plate reader (TECAN). To evaluate changes in proliferation, NB was pulsed for 10 minutes in CellTrace Violet (2 μM, Invitrogen) and seeded at 100,000 cells per well in a 12-well tissue culture-treated plate. Monocytes were added directly to the NB monolayer at a density of 100,000 per well and incubated for four days. CellTrace Violet expression was analyzed by flow cytometry.
Cytokines released by monocytes were detected within co-culture supernatants using the Human TNF-alpha Quantikine ELISA Kit (TNFα, R&D Systems) and the Human IL-6 Quantikine ELISA Kit (IL-6, R&D Systems) according to manufacturer's guidelines. ELISA plates were read using a TECAN Spark plate reader (TECAN). Global cytokine regulation was evaluated using a custom Luminex panel containing the following cytokines: CX3CL1, CXCL10, EGF, FGF-2, Flt3L, G-CSF, GM-CSF, IL-1α, IL-1β, IL-1Ra, IL-4, IL-6, IL-8, IL-10, IL-12 (p40), IL-12 (p′70), M-CSF, MCP-1, MCP-3, MDC, MIP-1α, MIP-1β, TGFα, TNFα, TNFβ, and VEGF-A (Human Cytokine Panel A, Millipore-Sigma).
(In general: An ELISA detects its analyte on a solid surface through an enzyme-linked reagent.)

Experiment [2] has as its system NB tumor cell gene expression. The experiment is described as follows: Eukaryotic mRNA-seq of xenograft tumors. Type of experiment: in vivo. The note with it: mouse transcripts, vs control tumors. An excerpt:
(FIG. 17A) Tumors recovered from mice in FIG. 16 were snap frozen in OTC media, thin sectioned, and stained for murine CD31 expression (red) and DAPI counterstain (blue). Results shown are representative images from five fields of view (FOVs) per tumor, with five tumors per group. Scale bar 50 μm. (FIG. 17B) Total number of CD31+ regions per FOV with box and whisker plot showing quartiles±range (Ctrl n=15, Etan n=25). (FIG. 17C) Size of each CD31+ area quantified per FOV; shown is median CD31+ area per FOV with box and whisker plot showing quartiles±range (Ctrl n=15, Etan n=25) (FIG. 17D) Longest distance across each CD31+ area (Max Feret distance) per FOV; shown is median distance per FOV with box and whisker plot showing quartiles±range (Ctrl n=15, Etan n=25). […]
Total RNA from cell pellets was isolated using the RNeasy Micro Plus Kit (Qiagen). […] Relative changes in gene expression were calculated based on the ΔCt method using housekeeping gene GAPDH as control. […]
Eukaryotic mRNA sequencing with 30M depth and 150 paired end reads was performed by Novogene, Inc. Quality control checks on FASTQ sequencing files were performed by FastQC (v0.11.2, https://www.bioinformatics.babraham.ac.uk/projects/fastqc/). Reads were then aligned to human (GRCh38, Ensembl release version 84) or mouse (GRCm38, Ensembl release version 81) reference genomes separately by hisat2 v2.1.0(51). […]

The subject of experiment [3] is SK-N-AS-luc. The experiment is described as follows: NB luminescence viability in monocyte co-culture. In kind it is cell-based, human. The note with it: SK-N-AS-luc + monocytes, 10 μg/mL etanercept, 72 hours (FIG. 8B). The procedure:
(FIG. 8A) Luciferase expressing CHLA-255-luc and SK-NAS-luc were cultured in 1-16,000 pg/mL rhTNF for 48 hours and viability of the cells was measured by luminescence. Data was normalized to untreated control and graphed as % Viability versus Log10 of TNF concentration.
as §1, with “To assess the growth advantage of NB cultured with monocytes, NB-luc cell lines and monocytes were seeded in tissue culture-treated white 96-well plates (1:1 ratio) and cultured for four days.” left out

In the case of etanercept, the IL-6 production entry in experiment [1] (CHLA-255 + monocytes, 10 μg/mL etanercept, vs IgG control (FIG. 15B)) is “almost entirely blocked”. For the same substance, the “IL-6 level in co-culture supernatant” value in experiment [1] (SK-N-AS + monocytes, vs IgG control) is “decrease”. The “infiltration of erythrocytes, platelets, and neutrophils (mouse stroma gene expression)” value in experiment [2] is “reduced infiltration of erythrocytes, platelets, and neutrophils”. In addition, the “cell death caused by monocyte-produced TNF (luminescence)” value in experiment [3] is given as “rescued”.

Source of the values: patent US20230103554A1, “TNFa SIGNALING [sequence] TUMOR-PROMOTING INFLAMMATION THAT CAN BE TARGETED TO THERAPY” (Baylor College of Medicine, priority 2020, published 2023).
